Source: article PMC10949855 (Journal of veterinary pharmacology and therapeutics, 2022)

Test system: healthy dogs
Experiment: Sedation score
Format: in vivo, dogs (Beagles)
[1] = IV CRI 0.2 mg/kg + 0.2 mg/kg/hr for 8 hr, 0.5 hr
[2] = IV CRI 0.2 mg/kg + 0.2 mg/kg/hr for 8 hr, 1 hr
[3] = IV CRI 0.2 mg/kg + 0.2 mg/kg/hr for 8 hr, 1.5 hr
[4] = IV CRI 0.2 mg/kg + 0.2 mg/kg/hr for 8 hr, 2 hr
[5] = IV CRI 0.2 mg/kg + 0.2 mg/kg/hr for 8 hr, 3 hr
[6] = IV CRI 0.2 mg/kg + 0.2 mg/kg/hr for 8 hr, 4 hr
[7] = IV CRI 0.2 mg/kg + 0.2 mg/kg/hr for 8 hr, 5 hr
[8] = IV CRI 0.2 mg/kg + 0.2 mg/kg/hr for 8 hr, 6 hr
[9] = IV CRI 0.2 mg/kg + 0.2 mg/kg/hr for 8 hr, 7 hr
[10] = IV CRI 0.2 mg/kg + 0.2 mg/kg/hr for 8 hr, 8 hr
[11] = IV CRI 0.2 mg/kg + 0.2 mg/kg/hr for 8 hr, 9 hr
[12] = IV CRI 0.2 mg/kg + 0.2 mg/kg/hr for 8 hr, 10 hr
[13] = IV CRI 0.2 mg/kg + 0.2 mg/kg/hr for 8 hr, 11 hr
[14] = IV CRI 0.2 mg/kg + 0.2 mg/kg/hr for 8 hr, 12 hr
[15] = IV CRI 0.2 mg/kg + 0.2 mg/kg/hr for 8 hr, 24 hr

Oc1ccc2c(c1)[C@@]13CCCC[C@@]1(O)[C@@H](C2)N(CC1CCC1)CC3 [butorphanol]
4: number of dogs with sedation score 1 [6] | number of dogs with sedation score 1 [7] | number of dogs with sedation score 1 [8] | number of dogs with sedation score 1 [9] | number of dogs with sedation score 0 [14] | number of dogs with sedation score 0 (IV bolus 0.4 mg/kg, 24 hr)
2: number of dogs with sedation score 2 [1] | number of dogs with sedation score 2 [4] | number of dogs with sedation score 2 [5] | number of dogs with sedation score 2 [10] | number of dogs with sedation score 0 [13]
1.5 to 2 h: time with moderate sedation or higher (sedation score >1) in at least one dog (IV bolus 0.4 mg/kg IV)
0: number of dogs with sedation score 0 [1] | number of dogs with sedation score 3 [1] | number of dogs with sedation score 0 [2] | number of dogs with sedation score 0 [3] | number of dogs with sedation score 0 [4] | number of dogs with sedation score 3 [4] | number of dogs with sedation score 0 [5] | number of dogs with sedation score 3 [5] | number of dogs with sedation score 0 [6] | number of dogs with sedation score 3 [6] | number of dogs with sedation score 0 [7] | number of dogs with sedation score 3 [7] | number of dogs with sedation score 0 [8] | number of dogs with sedation score 3 [8] | number of dogs with sedation score 0 [9] | number of dogs with sedation score 3 [9] | number of dogs with sedation score 0 [10] | number of dogs with sedation score 3 [10] | number of dogs with sedation score 0 [11] | number of dogs with sedation score 2 [11] | number of dogs with sedation score 3 [11] | number of dogs with sedation score 0 [12] | number of dogs with sedation score 2 [12] | number of dogs with sedation score 3 [12] | number of dogs with sedation score 2 [13] | number of dogs with sedation score 3 [13] | number of dogs with sedation score 2 [14] | number of dogs with sedation score 3 [14] | number of dogs with sedation score 1 [15] | number of dogs with sedation score 2 [15] | number of dogs with sedation score 3 [15] | number of dogs with sedation score 0 (IV bolus 0.4 mg/kg, 0.5 hr) | number of dogs with sedation score 2 (IV bolus 0.4 mg/kg, 0.5 hr) | number of dogs with sedation score 3 (IV bolus 0.4 mg/kg, 0.5 hr) | number of dogs with sedation score 0 (IV bolus 0.4 mg/kg, 1 hr) | number of dogs with sedation score 2 (IV bolus 0.4 mg/kg, 1 hr) | number of dogs with sedation score 3 (IV bolus 0.4 mg/kg, 1 hr) | number of dogs with sedation score 0 (IV bolus 0.4 mg/kg, 1.5 hr) | number of dogs with sedation score 3 (IV bolus 0.4 mg/kg, 1.5 hr) | number of dogs with sedation score 0 (IV bolus 0.4 mg/kg, 2 hr) | number of dogs with sedation score 3 (IV bolus 0.4 mg/kg, 2 hr) | number of dogs with sedation score 0 (IV bolus 0.4 mg/kg, 3 hr) | number of dogs with sedation score 2 (IV bolus 0.4 mg/kg, 3 hr) | number of dogs with sedation score 3 (IV bolus 0.4 mg/kg, 3 hr) | number of dogs with sedation score 2 (IV bolus 0.4 mg/kg, 4 hr) | number of dogs with sedation score 3 (IV bolus 0.4 mg/kg, 4 hr) | number of dogs with sedation score 2 (IV bolus 0.4 mg/kg, 5 hr) | number of dogs with sedation score 3 (IV bolus 0.4 mg/kg, 5 hr) | number of dogs with sedation score 2 (IV bolus 0.4 mg/kg, 6 hr) | number of dogs with sedation score 3 (IV bolus 0.4 mg/kg, 6 hr) | number of dogs with sedation score 2 (IV bolus 0.4 mg/kg, 7 hr) | number of dogs with sedation score 3 (IV bolus 0.4 mg/kg, 7 hr) | number of dogs with sedation score 1 (IV bolus 0.4 mg/kg, 8 hr) | number of dogs with sedation score 2 (IV bolus 0.4 mg/kg, 8 hr) | number of dogs with sedation score 3 (IV bolus 0.4 mg/kg, 8 hr) | number of dogs with sedation score 1 (IV bolus 0.4 mg/kg, 9 hr) | number of dogs with sedation score 2 (IV bolus 0.4 mg/kg, 9 hr) | number of dogs with sedation score 3 (IV bolus 0.4 mg/kg, 9 hr) | number of dogs with sedation score 1 (IV bolus 0.4 mg/kg, 10 hr) | number of dogs with sedation score 2 (IV bolus 0.4 mg/kg, 10 hr) | number of dogs with sedation score 3 (IV bolus 0.4 mg/kg, 10 hr) | number of dogs with sedation score 1 (IV bolus 0.4 mg/kg, 11 hr) | number of dogs with sedation score 2 (IV bolus 0.4 mg/kg, 11 hr) | number of dogs with sedation score 3 (IV bolus 0.4 mg/kg, 11 hr) | number of dogs with sedation score 1 (IV bolus 0.4 mg/kg, 12 hr) | number of dogs with sedation score 2 (IV bolus 0.4 mg/kg, 12 hr) | number of dogs with sedation score 3 (IV bolus 0.4 mg/kg, 12 hr) | number of dogs with sedation score 1 (IV bolus 0.4 mg/kg, 24 hr) | number of dogs with sedation score 2 (IV bolus 0.4 mg/kg, 24 hr) | number of dogs with sedation score 3 (IV bolus 0.4 mg/kg, 24 hr)
5: number of dogs with sedation score 1 [11] | number of dogs with sedation score 1 [12] | number of dogs with sedation score 0 [15] | number of dogs with sedation score 1 (IV bolus 0.4 mg/kg, 1.5 hr) | number of dogs with sedation score 1 (IV bolus 0.4 mg/kg, 2 hr) | number of dogs with sedation score 1 (IV bolus 0.4 mg/kg, 4 hr) | number of dogs with sedation score 1 (IV bolus 0.4 mg/kg, 5 hr) | number of dogs with sedation score 0 (IV bolus 0.4 mg/kg, 6 hr) | number of dogs with sedation score 0 (IV bolus 0.4 mg/kg, 7 hr)
3: number of dogs with sedation score 1 [1] | number of dogs with sedation score 1 [2] | number of dogs with sedation score 1 [3] | number of dogs with sedation score 1 [4] | number of dogs with sedation score 1 [5] | number of dogs with sedation score 1 [10] | number of dogs with sedation score 1 [13]
6: number of dogs with sedation score 1 (IV bolus 0.4 mg/kg, 0.5 hr) | number of dogs with sedation score 1 (IV bolus 0.4 mg/kg, 1 hr) | number of dogs with sedation score 1 (IV bolus 0.4 mg/kg, 3 hr) | number of dogs with sedation score 0 (IV bolus 0.4 mg/kg, 8 hr) | number of dogs with sedation score 0 (IV bolus 0.4 mg/kg, 9 hr) | number of dogs with sedation score 0 (IV bolus 0.4 mg/kg, 10 hr) | number of dogs with sedation score 0 (IV bolus 0.4 mg/kg, 11 hr) | number of dogs with sedation score 0 (IV bolus 0.4 mg/kg, 12 hr)
1: number of dogs with sedation score 2 [2] | number of dogs with sedation score 3 [2] | number of dogs with sedation score 2 [3] | number of dogs with sedation score 3 [3] | number of dogs with sedation score 2 [6] | number of dogs with sedation score 2 [7] | number of dogs with sedation score 2 [8] | number of dogs with sedation score 2 [9] | number of dogs with sedation score 1 [14] | number of dogs with sedation score 2 (IV bolus 0.4 mg/kg, 1.5 hr) | number of dogs with sedation score 2 (IV bolus 0.4 mg/kg, 2 hr) | number of dogs with sedation score 0 (IV bolus 0.4 mg/kg, 4 hr) | number of dogs with sedation score 0 (IV bolus 0.4 mg/kg, 5 hr) | number of dogs with sedation score 1 (IV bolus 0.4 mg/kg, 6 hr) | number of dogs with sedation score 1 (IV bolus 0.4 mg/kg, 7 hr)
